Patent US20030134859A1 (SANKYO COMPANY, LIMITED, priority 2000, published 2003)
Like-named read-outs stand apart in the source and are kept apart here.

How the values were obtained:
Balb/c mice = assay: Prevention of concanavalin A liver injury; assay type: in vivo, mouse; details: Mus musculus, po, 24 h, 10 mg/mL suspension at 10 mL/kg, 30 min prior to Con A, plasma 24 hr after Con A
Method: Five (5) Balb/c mice (female, 6-8 weeks old) per group were used. Liver injury was elicited in the mouse by injection of concanavalin A (Con A) dissolved in saline (2.0 mg/mL) into the tail vein at a volume of 10 mL/kg of the solution (Hepatology, 21, 190-198 (1995)).
The test compounds were suspended in distilled water containing 0.5% CMC, at a concentration of 10 mg/mL. This suspended solution was orally administered to the mouse at a volume of 10 mL/kg, 30 min prior to injection of Con A (group A).
Apart from this group, distilled water containing 0.5% CMC powder, instead of the test compound, was orally administered in the second group of mice (group B). In the 3rd group, nothing was given to the mice (group C).
Twenty four (24) hr after the injection of Con A, blood was collected from the abdominal aorta of the mice and the plasma was isolated while mixing with heparin. Activities of glutamic acid oxaloacetic acid transaminase (AST) and glutamic acid pyruvic acid transaminase (ALT) in the plasma were determined according to the methods described by Nagakawa et al. (J. Pharmacol. Exp. Ther., 264, 496-500 (1993)). From the values obtained inhibitory rates of the test compound against AST and ALT levels which had been increased by injection of Con A, were obtained based on the following equation.
Inhibitory Rate(%)={1−[(A−C)/(B−C)]}×100
A: The average level of AST or ALT in the group A
B: The average level of AST or ALT in the group B
C: The average level of AST or ALT in the group C

leptin production = assay: Enhancing activity for leptin production in adipocytes (ELISA); assay type: cell-based, rat; details: Rattus norvegicus, Adipocyte, 24 h, leptin concentration as % of control group, read-out: Facilitating activity to produce leptin
In short: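 Leptin release, quantified by rat leptin ELISA, expressed as percent of 0.1% DMSO control after 24 h at 37 °C. Cells were floating adipocytes isolated by collagenase digestion of epididymal fat from male 6-week Wistar Imamichi rats; compound tested at 1 nM–1 µM final.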

[1] = read-out: Preventing rate against liver injury, ALT (%)
[2] = read-out: Preventing rate against liver injury, AST (%)

Row | SMILES | inhibition in vivo at 10000 µg/mL, 100 mg/kg (Balb/c mice; [1]) [%] | inhibition in vivo at 10000 µg/mL, 100 mg/kg (Balb/c mice; [2]) [%] | activity at 1 µM (leptin production) [%] | activity at 0.001 µM (leptin production; 1 nm) [%] | activity at 0.01 µM (leptin production; 10 nm) [%] | activity at 0.1 µM (leptin production; 100 nm) [%]
1 | Cc1ccc(NC(=O)c2cc([N+](=O)[O-])ccc2Cl)cc1 [Example 1, N-(4-Methylphenyl)-(2-chloro-5-nitrophenyl)carboxamide] | 40.1 | 19 |  |  |  | 
2 | O=C(Nc1ccc(-c2ccccc2)cc1)c1cc([N+](=O)[O-])ccc1Cl [Example 2, N-(4-Phenylphenyl)-(2-chloro-5-nitrophenyl)carboxamide] | 64.5 | 4.1 | 113 |  |  | 
3 | O=C(Nc1ccc(-c2ccccn2)cc1)c1cc([N+](=O)[O-])ccc1Cl [Example 8, N-[4-(2-Pyridyl)phenyl]-(2-chloro-5-nitrophenyl)carboxamide] | 57 | 56 |  |  |  | 
4 | Cc1ccc2nc(-c3ccc(NC(=O)c4cc([N+](=O)[O-])ccc4Cl)cc3)sc2c1 [Example 10, N-[4-(6-Methylbenzothiazol-2-yl)phenyl]-(2-chloro-5-nitrophenyl)carboxamide] | 55.9 | 49 | 118 |  |  | 
5 | CCCCCc1ccc(NC(=O)c2cc([N+](=O)[O-])ccc2Cl)cc1 [Example 16, N-(4-Pentylphenyl)-(2-chloro-5-nitrophenyl)carboxamide] | 44.4 | 21.4 |  |  |  | 
6 | N#Cc1ccc(NC(=O)c2cc([N+](=O)[O-])ccc2Cl)cc1 [Example 20, N-(4-Cyanophenyl)-(2-chloro-5-nitrophenyl)carboxamide] | 67.2 | 77 | 126 | 130 | 135 | 155
7 | O=C(Nc1nc(-c2ccccc2)cs1)c1cc([N+](=O)[O-])ccc1Cl [Example 35, N-(4-Phenylthiazol-2-yl)-(2-chloro-5-nitrophenyl)carboxamide] | 12.4 |  |  |  |  | 
8 | O=C(Nc1nc(-c2cccnc2)cs1)c1cc([N+](=O)[O-])ccc1Cl [Example 37, N-[4-(3-Pyridyl)thiazol-2-yl)-(2-chloro-5-nitrophenyl)carboxamide] | 20.7 |  |  |  |  | 
9 | COc1cnc(NS(=O)(=O)c2ccc(NC(=O)c3cc([N+](=O)[O-])ccc3Cl)cc2)nc1 [Example 105, N-[4-[(5-Methoxypyrimidin-2-yl)aminosulfonyl]phenyl]-(2-chloro-5-nitrophenyl)carboxamide] | 22.4 | 27.5 |  |  |  | 
10 | N=C(N)NS(=O)(=O)c1ccc(NC(=O)c2cc([N+](=O)[O-])ccc2Cl)cc1 [Example 106, N-[4-(Amidinoaminosulfonyl)phenyl]-(2-chloro-5-nitrophenyl)carboxamide] | 114 | 106 |  |  |  | 
11 | O=C(Nc1ccc(S(=O)(=O)Nc2cccnc2)cc1)c1cc([N+](=O)[O-])ccc1Cl [Example 178] | 50.5 | 64.5 | 117 |  |  | 
